Measured values published in patent US20250084079A1, “COMPOSITIONS AND METHODS FOR INHIBITION OF RAS” (TheRas, Inc., priority 2022, published 2025).
Where two headings read alike, the source gives them in different places.

Experiments:
[1] = target: T1, Avi-KRAS G12D/Q25A (1-169) GppNHp/3xFLAG-PI3KCA (157-299) (Homo sapiens, UniProt P01116, G12D/Q25A); assay: RAS-effector PPI HTRF disruption assay, PI3KCA-GppNHp-KRAS G12D/Q25A; format: biochemical
T1 construct: 375 nM Avi-KRAS G12D/Q25A (1-169) GppNHp
Description: (§1) A protein:protein interaction (PPI) Homogeneous Time Resolved Fluorescence (HTRF) assay was used to determine the effectiveness of compounds of the present disclosure in disrupting KRAS protein and effector (RAF1 or PIK3 CA) binding.
(§2) The HTRF assay used the following reagents and proteins: (i) 375 nM Avi-KRAS G12D/Q25A (1-169) GppNHp/3×FLAG-PI3KCA (157-299); (ii) 100 nM Avi-KRAS G12D (1-169) GppNHp/RAF1 RBD-3×FLAG (52-151); (iii) 50 nM Avi-KRAS G12V (1-169) GppNHp/RAF1 RBD-3×FLAG (52-151); (iv) 50 nM Avi-KRAS WT (1-169) GppNHp/RAF1 RBD-3×FLAG (52-151); and (v) 35 nM Avi-PI3K RBD CA-3×FLAG; Assay Buffer: 50 mM Tris pH 7.5, 100 mM NaCl, 5 mM MgCl2, 0.1% BSA, 0.01% Tween, 1 mM TCEP, 10% DMSO; Bead Buffer: 50 mM Tris pH 7.5, 0.01% Tween 20; Assay volume: 20 μL (384 well plate-low volume format); and Compound titration: 100-0.02 μM, 3× dilution series.
(§3) The HTRF assay employed the following protocol:
(§4) Compounds were dispensed in assay plate (384-well, Grenier Bione #784075) using Echo (model 555) with dose response settings: 200 nL final volume, titration from 100 μM as a 10-point dilution series. Protein mix was prepared in assay buffer, and dispensed on plates, 10 μL per well, then incubated for 1 h at room temperature, with 700 rpm shaking. Reagents mix was prepared and dispensed on plates, 10 μL per well, then incubated for 1 h at room temperature, with 700 rpm shaking.
(§5) Plates were analyzed on an Envision plate reader using the following setting: Excitation 320 nm, Bandwidth […]; Emission 615 nm, Bandwidth […], Gain 100%, Flashes 100, Lag 60 μs. Data was reported as percentage of activity, with DMSO as 100%. Data was plotted and analyzed using Prism 8. The SPR Kd, biochemical Raf1-KRAS G12D/G12V/WT-GppNHP and PI3KCA-KRAS G12D/Q25A-GppNHp disruption assay IC50 of selected compounds described herein are shown in Table 4.

[2] = target: T2, Avi-KRAS G12V (1-169) GppNHp/RAF1 RBD-3xFLAG (52-151) (Homo sapiens, UniProt P01116, G12V); assay: RAS-effector PPI HTRF disruption assay, Raf1-GppNHp-KRAS G12V; format: biochemical
T2 construct: 50 nM Avi-KRAS G12V (1-169) GppNHp
Description: as §1, §2, §3, §4, §5

[3] = target: T3, Avi-KRAS G12D (1-169) GppNHp/RAF1 RBD-3xFLAG (52-151) (Homo sapiens, UniProt P01116, G12D); assay: RAS-effector PPI HTRF disruption assay, Raf1-GppNHp-KRAS G12D; format: biochemical
T3 construct: 100 nM Avi-KRAS G12D (1-169) GppNHp
Description: as §1, §2, §3, §4, §5

[4] = target: T4, Avi-KRAS WT (1-169) GppNHp/RAF1 RBD-3xFLAG (52-151) (Homo sapiens, UniProt P01116); assay: RAS-effector PPI HTRF disruption assay, Raf1-GppNHp-KRAS WT; format: biochemical
T4 construct: 50 nM Avi-KRAS WT (1-169) GppNHp
Description: as §1, §2, §3, §4, §5

[5] = tested on: pERK in GP2d cells (KRAS G12D); assay: Cell-based pERK HTRF assay in GP2d cell; conditions: 60 min incubation
Description: A pERK assay (Perkin Elmer) was used to determine the effectiveness of compounds in disrupting KRAS G12D protein/effector signaling in cells.
On Day 1, cells (GP2d) were seeded into 96-well plates at 3×10^4 cells/well in 80 μL complete growth media (DMEM, 10% FBS).
On Day 2, cells were treated with compounds at 0.25% DMSO. The source plate was created with compounds diluted in media at 5-fold the final assay concentration. The compounds were run in a 9-point concentration curve starting at 1 μM, with a half-log dilution between concentrations. 20 μL was transferred onto the cell plates (final volume in wells was 100 μL). Plates were harvested after 60 min incubation by aspirating media and adding kit-supplied 1× supplemented lysis buffer to all wells (50 μL per well). Plates were then placed on a plate shaker and incubated at 850 rpm for an additional 30 min.
Antibody mixture solution is prepared by diluting aliquoted d2 and Eu Cryptate antibodies 1:20 in kit supplied detection buffer, mix the diluted antibodies solutions (1:1 v:v). 4 μL of this solution is then added to a 384-well detection plate (Perkin Elmer; 6008230).
Samples were homogenized by pipetting up and down and then transferred (16 μL of cell lysates) from the 96-well cell culture plate to two wells of the HTRF 384-well detection plate containing the antibody solution. Plates were centrifuged (524 g for 1 min) and allowed to incubate between 4 and 24 h at room temperature. Maximum signal is reached after 4 h incubation time and remains stable over a period of 24 hours. Therefore, readings can be made between 4 and 24 h of incubation. Plates were centrifuged again (524 g for Imin), then analyzed on the EnVision plate reader using the following settings: Excitation 320 nm, Bandwidth 75 nm; Emission 615 nm, Bandwidth 85 nm; Gain 100%; Flashes 100; Lag 60 μs.

T2 sequence (P01116 1-169 isoform P01116-2 G12V): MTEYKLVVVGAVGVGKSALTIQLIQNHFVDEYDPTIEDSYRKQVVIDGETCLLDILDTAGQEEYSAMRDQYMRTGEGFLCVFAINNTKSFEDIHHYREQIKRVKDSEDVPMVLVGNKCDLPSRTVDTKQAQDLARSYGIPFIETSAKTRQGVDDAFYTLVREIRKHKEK
T3 sequence (P01116 1-169 isoform P01116-2 G12D): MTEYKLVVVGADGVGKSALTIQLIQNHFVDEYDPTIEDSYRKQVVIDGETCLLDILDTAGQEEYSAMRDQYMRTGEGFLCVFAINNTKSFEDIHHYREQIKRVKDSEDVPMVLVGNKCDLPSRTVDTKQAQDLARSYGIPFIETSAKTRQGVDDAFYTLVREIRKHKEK
T4 sequence (P01116 1-169 isoform P01116-2): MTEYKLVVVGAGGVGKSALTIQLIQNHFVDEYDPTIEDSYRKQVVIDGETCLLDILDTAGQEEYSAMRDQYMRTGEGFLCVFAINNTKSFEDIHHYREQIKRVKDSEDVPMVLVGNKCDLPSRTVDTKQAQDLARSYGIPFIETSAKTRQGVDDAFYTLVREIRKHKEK
T1 sequence (P01116 1-169 isoform P01116-2 G12D/Q25A): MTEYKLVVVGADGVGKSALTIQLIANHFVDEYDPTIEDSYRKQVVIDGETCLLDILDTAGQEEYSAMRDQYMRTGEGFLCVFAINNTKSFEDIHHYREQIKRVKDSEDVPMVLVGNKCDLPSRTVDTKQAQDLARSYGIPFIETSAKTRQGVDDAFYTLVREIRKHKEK

| Structure (SMILES) | IC50 [1] [nM] | IC50 [2] [nM] | IC50 [3] [nM] | IC50 [4] [nM] | IC50 ([5]; GP2d, 1 h) [nM] | IC50 ([5]; read-out: pERK-Gp2D-1 hr) [nM] |
| --- | --- | --- | --- | --- | --- | --- |
| C[C@@H]1NCC[C@H]1Oc1nc(OC[C@@]23CCCN2C[C@H](F)C3)nc2c(F)c(-c3ccc(F)c4sc(N)nc34)c(C(F)(F)F)cc12 (atropisomer, axis not shown) [Compound 9] | > 10000 | > 10000 | > 10000 | > 10000 | – | – |
| N#Cc1c(N)sc2c(F)ccc(-c3c(C(F)(F)F)cc4c(O[C@@H]5CCC6(CNC6)C5)nc(OC[C@@]56CCCN5C[C@H](F)C6)nc4c3F)c12 (atropisomer, axis not shown) [Compound 85] | – | 100 to 1000 | ≤ 100 | ≤ 100 | 100 to 1000 | – |
| C[C@H]1NCC[C@H]1Oc1nc(OC[C@@]23CCCN2C[C@H](F)C3)nc2cc(-c3ccc(F)c4sc(N)c(C#N)c34)c(C(F)(F)F)nc12 [Compound 96] | – | 1000 to 10000 | 100 to 1000 | 100 to 1000 | ≤ 100 | – |
| Nc1nc2c(-c3ccc4c(O[C@H]5CNC[C@H]5F)nc(OC[C@@]56CCCN5C[C@H](F)C6)nc4c3F)ccc(F)c2s1 [Compound 82] | – | > 10000 | > 10000 | > 10000 | > 1000 | – |
| N#Cc1c(N)sc2c(F)ccc(-c3c(C(F)(F)F)cc4c(O[C@H]5CCC6(CNC6)C5)nc(OC[C@@]56CCCN5C[C@H](F)C6)nc4c3F)c12 (atropisomer, axis not shown) [Compound 78] | – | > 10000 | 1000 to 10000 | 1000 to 10000 | – | > 1000 |
| N#Cc1c(N)sc2c(F)ccc(-c3c(C(F)(F)F)cc4c(OC5CC6(CNC6)C5)nc(OC[C@@]56CCCN5C[C@H](F)C6)nc4c3F)c12 [Compound 43] | – | 100 to 1000 | 100 to 1000 | 100 to 1000 | 100 to 1000 | – |
| COC[C@@H]1C[C@@H](Oc2nc(OC[C@@]34CCCN3C[C@H](F)C4)nc3c(F)c(-c4ccc(F)c5sc(N)c(C#N)c45)c(C(F)(F)F)cc23)CN1 (atropisomer, axis not shown) [Compound 84] | – | 100 to 1000 | ≤ 100 | 100 to 1000 | ≤ 100 | – |
| C[C@H]1CNCC1Oc1nc(OC[C@@]23CCCN2C[C@H](F)C3)nc2c(F)c(-c3ccc(F)c4sc(N)nc34)c(C(F)(F)F)cc12 (stereo partly shown) [Compound 2] | 1000 to 10000 | > 10000 | 1000 to 10000 | 1000 to 10000 | – | – |
| C[C@@H]1C[C@@H](Oc2nc(OC[C@@]34CCCN3C[C@H](F)C4)nc3cc(-c4ccc(F)c5sc(N)c(C#N)c45)c(C(F)(F)F)nc23)CN1 [Compound 95] | – | > 10000 | > 10000 | > 10000 | – | 100 to 1000 |
| COC[C@H]1C[C@@H](Oc2nc(OC[C@@]34CCCN3C[C@H](F)C4)nc3c(F)c(-c4ccc(F)c5sc(N)c(C#N)c45)c(C(F)(F)F)cc23)CN1 (atropisomer, axis not shown) [Compound 80] | – | 100 to 1000 | ≤ 100 | 100 to 1000 | – | ≤ 100 |
| C[C@@H]1C[C@@H](Oc2nc(OC[C@@]34CCCN3C[C@H](F)C4)nc3cc(-c4ccc(F)c5sc(N)c(C#N)c45)c(C(F)(F)F)nc23)CN1 [Compound 94] | – | 1000 to 10000 | 1000 to 10000 | 1000 to 10000 | ≤ 100 | – |
| N#Cc1c(N)sc2c(F)ccc(-c3c(C(F)(F)F)cc4c(OC5CCC6(CC5)CNC6)nc(OC[C@@]56CCCN5C[C@H](F)C6)nc4c3F)c12 [Compound 40] | – | 100 to 1000 | ≤ 100 | ≤ 100 | 100 to 1000 | – |
| CN1CCC[C@H]1COc1nc(OC2CNC2)c2cc(Cl)c(-c3ccc(F)c4sc(N)nc34)c(F)c2n1 [Compound 3] | – | – | > 10000 | – | – | – |
| N#Cc1c(N)sc2c(F)ccc(-c3cc4nc(OC[C@@]56CCCN5C[C@H](F)C6)nc(O[C@@H]5CCNC5)c4nc3C(F)(F)F)c12 [Compound 93, 2-amino-7-fluoro-4-(2-(((2R,7aS)-2-fluorotetrahydro-1H-pyrrolizin-7a(5H)-yl)methoxy)-4-(((R)-pyrrolidin-3-yl)oxy)-6-(trifluoromethyl)pyrido[3,2-d]pyrimidin-7-yl)benzo[b]thiophene-3-carbonitrile] | – | 1000 to 10000 | 1000 to 10000 | 1000 to 10000 | ≤ 100 | – |
| C[C@H]1NCC[C@H]1Oc1nc(OC[C@@]23CCCN2C[C@H](F)C3)nc2c(F)c(-c3ccc(F)c4sc(N)nc34)ccc12 [Compound 83] | – | > 10000 | > 10000 | > 10000 | > 1000 | – |
| N#Cc1c(N)sc2c(F)ccc(-c3c(C(F)(F)F)cc4c(O[C@H]5CCC6(CNC6)C5)nc(OC[C@@]56CCCN5C[C@H](F)C6)nc4c3F)c12 (atropisomer, axis not shown) [Compound 79] | – | ≤ 100 | ≤ 100 | ≤ 100 | – | ≤ 100 |
| COC[C@H]1NCC[C@H]1Oc1nc(OC[C@@]23CCCN2C[C@H](F)C3)nc2c(F)c(-c3ccc(F)c4sc(N)c(C#N)c34)ccc12 [Compound 91] | – | > 10000 | > 10000 | > 10000 | 100 to 1000 | – |
| COC[C@H]1NCC[C@H]1Oc1nc(OC[C@@]23CCCN2C[C@H](F)C3)nc2c(F)c(-c3ccc(F)c4sc(N)c(C#N)c34)c(C(F)(F)F)cc12 [Compound 90] | – | 1000 to 10000 | 100 to 1000 | 100 to 1000 | ≤ 100 | – |
| Nc1nc2c(-c3c(C(F)(F)F)cc4c(O[C@@H]5CCNC5)nc(OCC56CCCN5C[C@H](F)C6)nc4c3F)ccc(F)c2s1 (stereo partly shown) [Compound 4] | – | – | – | – | ≤ 100 | – |
| N#Cc1c(-c2ccc(F)c3sc(N)c(C#N)c23)c(Cl)cc2c(O[C@H]3CNC[C@H]3F)nc(OC[C@@]34CCCN3C[C@H](F)C4)nc12 [Compound 92] | – | > 10000 | 1000 to 10000 | 1000 to 10000 | 100 to 1000 | – |
| C[C@H]1CNCC1Oc1nc(OC[C@@]23CCCN2C[C@H](F)C3)nc2c(F)c(-c3ccc(F)c4sc(N)nc34)c(C(F)(F)F)cc12 (stereo partly shown) [Compound 1] | – | – | 1000 to 10000 | – | – | – |
| COC[C@H]1C[C@@H](Oc2nc(OC[C@@]34CCCN3C[C@H](F)C4)nc3c(F)c(-c4ccc(F)c5sc(N)c(C#N)c45)c(C(F)(F)F)cc23)CN1 (atropisomer, axis not shown) [Compound 81] | – | > 10000 | > 10000 | > 10000 | – | > 1000 |
